Measured values reported in patent publication US20220111378A1, “METHODS AND SYSTEMS FOR DETERMINING TARGET SENSITIVITY TO A THERAPEUTIC FORMULA” (priority 2019, published 2022).

What was measured:
[1] = tested on: Candida tropicalis CanTCDC345; assay: Growth curves at breakpoint concentrations compared with culture results (optical AST); type: cell-based; details: clinical isolate CanTCDC345, confirmed for caspofungin within approximately 12 minutes
Procedure: (§1) To prepare a spiked bacterial sample, 1 mL of an overnight culture was diluted into 25 mL of warm cation-adjusted Mueller Hinton broth, allowed to grow to log phase at 37 C in a shaking incubator, and counted using a hemocytometer. The bacteria were then diluted in additional warm broth to a final concentration of 1E5 to 8E5 CFU/mL. A 2-mL aliquot of the bacterial solution was added to a disposable 1-cm cuvette containing a pre-dispensed volume of water, diluent and antibiotic according to the experiment at hand. The fluids were mixed by pipetting. A no-antibiotic control was used in each experiment, which contained only the appropriate volume of water and diluent. A set of three cuvettes, such as in 41 or 43a, 43b or 43c, containing identical mixtures were assembled side-to-side into a three-centimeter light path and inserted into the prototype sensitivity module shown in FIGS. 2A and 2B. A total of four sets of cuvettes could be examined in the prototype at one time. The prototype maintains the cultures at 37 C with gentle agitation to mitigate the effects of bacterial settling. Optical transmissions through each set of cuvettes were taken every 5 seconds for the no-antibiotic control and the experimental cuvettes. The bacteria were allowed to grow from 10 minutes to two hours depending on the antibiotics and/or bacteria being tested. The final curves were analyzed to determine whether the bacteria were sensitive or resistant to each drug or drug combination.
(§2) In the proof-of-concept device used to generate the data provided in this example, a 3-cm light path and lasers at 405 nm and 532 nm were used. Antimicrobial resistance profiles of 17 clinical isolates of 11 uropathogens were followed from 20 minutes to three hours, against 8 antibiotics, both lytic and static.

[2] = tested on: Escherichia coli EcUAH202; assay: as above; type: cell-based; details: clinical isolate EcUAH202, confirmed for ampicillin and levofloxacin within approximately 7 minutes
Procedure: as §1, §2

[3] = tested on: Staphylococcus aureus SaR100; assay: as above; type: cell-based; details: clinical isolate SaR100, confirmed by growth curves within approximately 42 minutes
Procedure: as §1, §2

[4] = tested on: Pseudomonas aeruginosa PaH201; assay: as above; type: cell-based; details: clinical isolate PaH201, confirmed for ampicillin and ciprofloxacin within approximately 42 minutes
Procedure: as §1, §2

[5] = tested on: Enterococcus faecalis EfR100; assay: as above; type: cell-based; details: clinical isolate EfR100, confirmed by growth curves within approximately 33 minutes
Procedure: as §1, §2

[6] = tested on: K. pneumoniae KpH201; details: clinical isolate KpH201; breakpoint concentrations; confirmed by growth curves vs no-antibiotic control within approximately 20 minutes
Procedure: as §1, with “The bacteria were allowed to grow from 10 minutes to two hours depending on the antibiotics and/or bacteria being tested.” left out, “combination. […]” for “combination.”

[7] = tested on: sterile urine sample spiked with clinical isolate EcUAH202; details: EcUAH202 spiked into sterile urine; breakpoint concentrations; confirmed for ampicillin within approximately 5 minutes
Procedure: as §1, with “The bacteria were then diluted in additional warm broth to a final concentration of 1E5 to 8E5 CFU/mL.” left out, “combination. […]” for “combination.”

| Compound | Culture results: sensitivity or resistance of the strain [1] | Culture results: sensitivity or resistance of the strain [2] | Culture results: sensitivity or resistance of the strain [3] | Culture results: sensitivity or resistance of the strain [4] | Culture results: sensitivity or resistance of the strain [5] | Culture results: sensitivity or resistance of the strain [6] | Culture results: sensitivity or resistance of the strain [7] |
| --- | --- | --- | --- | --- | --- | --- | --- |
| CC[C@H](C)C[C@H](C)CCCCCCCCC(=O)N[C@H]1C[C@@H](O)[C@@H](NCCN)NC(=O)[C@@H]2[C@@H](O)CCN2C(=O)[C@H]([C@H](O)CCN)NC(=O)[C@H]([C@H](O)[C@@H](O)c2ccc(O)cc2)NC(=O)[C@@H]2C[C@@H](O)CN2C(=O)[C@H]([C@@H](C)O)NC1=O [caspofungin] | sensitivity |  |  |  |  |  |  |
| CC1(C)S[C@@H]2[C@H](NC(=O)[C@H](N)c3ccccc3)C(=O)N2[C@H]1C(=O)O [ampicillin] |  | resistance | sensitivity | resistance | sensitivity | sensitivity | resistance |
